Assay results published in US20210255193A1, “LYSINE REACTIVE PROBES AND USES THEREOF” (The Scripps Research Institute, priority 2017, published 2021).

Assays:
Assay in all cases: competitive isoTOP-ABPP
Format in all cases: binding
LMNA Prelamin-A/C = molecular target: T1, LMNA Prelamin-A/C (Homo sapiens, UniProt P02545); details: 50 uM, in vitro; for isoTOP-ABPP ratio (R) at liganded lysine P02545_K135: sol, 231
T1 construct: isoTOP-ABPP experiments performed in cell lysates (in vitro); endogenous in cells; host or cells: MDA-MB-231 soluble lysate
T1 sequence (P02545 1-664): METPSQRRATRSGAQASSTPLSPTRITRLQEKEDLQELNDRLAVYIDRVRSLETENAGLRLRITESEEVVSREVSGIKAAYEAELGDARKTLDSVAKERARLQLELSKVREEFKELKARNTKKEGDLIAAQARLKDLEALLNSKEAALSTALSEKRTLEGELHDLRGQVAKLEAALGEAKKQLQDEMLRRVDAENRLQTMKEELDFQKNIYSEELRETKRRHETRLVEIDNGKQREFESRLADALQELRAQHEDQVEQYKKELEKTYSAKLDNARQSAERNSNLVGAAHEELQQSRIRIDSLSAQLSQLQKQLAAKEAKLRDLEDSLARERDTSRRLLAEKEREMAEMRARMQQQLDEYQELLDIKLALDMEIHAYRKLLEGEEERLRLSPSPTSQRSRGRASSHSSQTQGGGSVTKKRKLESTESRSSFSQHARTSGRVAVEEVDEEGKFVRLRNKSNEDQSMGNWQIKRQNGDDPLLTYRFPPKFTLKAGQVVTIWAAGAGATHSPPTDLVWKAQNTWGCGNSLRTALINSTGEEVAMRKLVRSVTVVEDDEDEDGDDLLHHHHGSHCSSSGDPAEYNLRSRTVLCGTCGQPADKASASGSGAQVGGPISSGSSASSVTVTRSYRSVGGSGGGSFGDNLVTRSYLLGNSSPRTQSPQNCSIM
Outline: (§1)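 Probe: STP-alkyne, 0.1 mM, 1 h RT, after fragment pretreatment of lysate (esters 50 μM; guanidinylators 100 μM). Tags: light = compound, heavy = DMSO, via CuAAC. Replicates averaged if SD <60% of mean; otherwise lowest ratio used when any R <4.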

[1] = molecular target: T2, RPL10 60S ribosomal protein L10 (Homo sapiens, UniProt P27635); details: 50 uM, in vitro; for isoTOP-ABPP ratio (R) at liganded lysine P27635_K121: sol, 231
T2 construct: isoTOP-ABPP experiments performed in cell lysates (in vitro); endogenous in cells; host or cells: soluble proteome of human cancer cell lines (MDA-MB-231; Ramos and Jurkat also prepared)
Outline: as §1

[2] = molecular target: T3, MRPS24 28S ribosomal protein S24, mitochondrial (Homo sapiens, UniProt Q96EL2); details: 50 uM, in vitro; for isoTOP-ABPP ratio (R) at liganded lysine Q96EL2_K94: sol, 231
T3 construct: isoTOP-ABPP experiments performed in cell lysates (in vitro); endogenous in cells; host or cells: soluble proteome of human cancer cell lines (MDA-MB-231; Ramos and Jurkat also prepared)
Outline: as §1

[3] = molecular target: T4, WARS Tryptophan--tRNA ligase, cytoplasmic (Homo sapiens, UniProt P23381); details: 50 uM, in vitro; for isoTOP-ABPP ratio (R) at liganded lysine P23381_K256: sol, 231
T4 construct: isoTOP-ABPP experiments performed in cell lysates (in vitro); endogenous in cells; host or cells: soluble proteome of human cancer cell lines (MDA-MB-231; Ramos and Jurkat also prepared)
T4 sequence (P23381 1-471): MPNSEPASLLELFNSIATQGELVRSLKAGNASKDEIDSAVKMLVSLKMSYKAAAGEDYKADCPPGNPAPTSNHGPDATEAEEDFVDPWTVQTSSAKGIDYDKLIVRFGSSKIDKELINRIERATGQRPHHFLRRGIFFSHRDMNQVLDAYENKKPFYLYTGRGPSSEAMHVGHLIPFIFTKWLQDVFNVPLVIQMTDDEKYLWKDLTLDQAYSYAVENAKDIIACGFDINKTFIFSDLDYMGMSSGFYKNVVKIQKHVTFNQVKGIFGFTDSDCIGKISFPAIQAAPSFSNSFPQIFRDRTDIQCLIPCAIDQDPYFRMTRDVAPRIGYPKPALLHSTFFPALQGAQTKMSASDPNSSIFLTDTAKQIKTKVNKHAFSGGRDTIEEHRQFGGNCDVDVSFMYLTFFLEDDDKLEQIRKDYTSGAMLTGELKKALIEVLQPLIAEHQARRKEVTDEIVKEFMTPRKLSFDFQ
Outline: as §1

[4] = molecular target: T5, RINT1 RAD50-interacting protein 1 (Homo sapiens, UniProt Q6NUQ1); details: 50 uM, in vitro; for isoTOP-ABPP ratio (R) at liganded lysine Q6NUQ1_K771: sol, 231
T5 construct: isoTOP-ABPP experiments performed in cell lysates (in vitro); endogenous in cells; host or cells: soluble proteome of human cancer cell lines (MDA-MB-231; Ramos and Jurkat also prepared)
Outline: as §1

T5 sequence (Q6NUQ1 whole entry): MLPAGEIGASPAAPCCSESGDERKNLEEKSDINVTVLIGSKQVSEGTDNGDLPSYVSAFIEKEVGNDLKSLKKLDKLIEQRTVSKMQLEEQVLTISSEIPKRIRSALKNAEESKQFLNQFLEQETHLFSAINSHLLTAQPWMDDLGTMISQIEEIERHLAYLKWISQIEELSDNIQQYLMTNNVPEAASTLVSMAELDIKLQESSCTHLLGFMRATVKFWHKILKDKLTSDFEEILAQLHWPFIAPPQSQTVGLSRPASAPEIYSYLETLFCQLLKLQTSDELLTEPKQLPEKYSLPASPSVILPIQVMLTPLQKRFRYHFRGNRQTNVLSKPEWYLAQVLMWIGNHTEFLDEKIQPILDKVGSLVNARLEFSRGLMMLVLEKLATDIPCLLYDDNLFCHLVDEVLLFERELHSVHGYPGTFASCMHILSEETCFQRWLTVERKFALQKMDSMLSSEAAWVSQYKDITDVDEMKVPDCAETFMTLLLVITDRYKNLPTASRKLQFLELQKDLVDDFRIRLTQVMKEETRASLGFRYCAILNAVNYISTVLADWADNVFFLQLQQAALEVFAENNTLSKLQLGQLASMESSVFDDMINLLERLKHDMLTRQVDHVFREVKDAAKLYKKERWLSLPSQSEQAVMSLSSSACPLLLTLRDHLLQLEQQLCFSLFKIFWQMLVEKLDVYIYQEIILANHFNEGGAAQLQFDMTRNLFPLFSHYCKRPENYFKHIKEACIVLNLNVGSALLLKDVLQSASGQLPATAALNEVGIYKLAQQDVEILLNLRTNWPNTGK

Row | SMILES | isoTOP-ABPP ratio (R) at liganded lysine P02545_K135 (LMNA Prelamin-A/C) | isoTOP-ABPP ratio (R) at liganded lysine P27635_K121 [1] | isoTOP-ABPP ratio (R) at liganded lysine Q96EL2_K94 [2] | isoTOP-ABPP ratio (R) at liganded lysine P23381_K256 [3] | isoTOP-ABPP ratio (R) at liganded lysine Q6NUQ1_K771 [4] | further results
1 | Cn1cc(CC(=O)Oc2c(F)c(F)c(F)c(F)c2F)c2ccccc21 [fragment 22, Pentafluorophenyl 2-(1-methyl-1H-indol-3-yl)acetate] |  |  |  |  |  | R value (DMSO/fragment) for probe 1 labeling (LMNA Prelamin-A/C; P02545_K135, 231 sol): 1.0; R value (DMSO/fragment) for probe 1 labeling ([1]; P27635_K121, 231 sol): 0.9; R value (DMSO/fragment) for probe 1 labeling ([2]; Q96EL2_K94, 231 sol): 1.6; R value (DMSO/fragment) for probe 1 labeling ([3]; P23381_K256, 231 sol): 1.0; R value (DMSO/fragment) for probe 1 labeling ([4]; Q6NUQ1_K771, 231 sol): 1.0
2 | O=C(CCc1cn(-c2ccccc2)nc1-c1ccccc1)Oc1ccc([N+](=O)[O-])cc1[N+](=O)[O-] [fragment 29, 2,4-Dinitrophenyl 3-(1,3-diphenyl-1H-pyrazol-4-yl)propanoate] |  |  |  |  |  | isoTOP-ABPP reactivity ratio at lysine P02545_K135 (LMNA Prelamin-A/C; 231 sol): 1.0; isoTOP-ABPP reactivity ratio at lysine P27635_K121 ([1]; 231 sol): 1.4; isoTOP-ABPP reactivity ratio at lysine Q96EL2_K94 ([2]; 231 sol): 2.2; isoTOP-ABPP reactivity ratio at lysine P23381_K256 ([3]; 231 sol): 0.9; isoTOP-ABPP reactivity ratio at lysine Q6NUQ1_K771 ([4]; 231 sol): 1.2
3 | Cn1cc(CC(=O)Oc2ccc([N+](=O)[O-])cc2[N+](=O)[O-])c2ccccc21 [fragment 32, 2,4-Dinitrophenyl 2-(1-methyl-1H-indol-3-yl)acetate] |  |  |  |  |  | isoTOP-ABPP reactivity ratio at lysine P02545_K135 (LMNA Prelamin-A/C; 231 sol): 20.0; isoTOP-ABPP reactivity ratio at lysine P27635_K121 ([1]; 231 sol): 1.7; isoTOP-ABPP reactivity ratio at lysine Q96EL2_K94 ([2]; 231 sol): 5.1; isoTOP-ABPP reactivity ratio at lysine P23381_K256 ([3]; 231 sol): 0.9; isoTOP-ABPP reactivity ratio at lysine Q6NUQ1_K771 ([4]; 231 sol): 1.2
4 | O=C(Oc1ccc([N+](=O)[O-])cc1[N+](=O)[O-])C1CCN(C(=O)OCc2ccccc2)CC1 [fragment 34, 1-Benzyl 4-(2,4-dinitrophenyl) piperidine-1,4-dicarboxylate] | 1.2 | 1.3 | 1.4 | 1.0 | 1.3 | 
5 | O=C(Oc1ccc([N+](=O)[O-])cc1[N+](=O)[O-])c1ccc2ccccc2n1 [fragment 35, 2,4-Dinitrophenyl quinoline-2-carboxylate] | 0.7 | 0.6 | 1.3 | 1.1 | 1.7 | 
6 | O=C(CCc1coc2cc(F)ccc2c1=O)Oc1ccc([N+](=O)[O-])cc1[N+](=O)[O-] [fragment 36, 2,4-Dinitrophenyl 3-(7-fluoro-4-oxo-4H-chromen-3-yl)propanoate] | 0.8 | 0.5 | 2.8 | 1.0 | 0.9 | 
7 | O=C(Oc1ccc([N+](=O)[O-])cc1[N+](=O)[O-])c1ccc(-c2ccccc2)cc1 [fragment 37, 2,4-Dinitrophenyl [1,1′-biphenyl]-4-carboxylate] | 0.9 | 0.8 | 0.9 | 0.4 | 1.3 | 
